Where two headings read alike, the source gives them in different places.
Assay: Clinical trial: plasma concentration and AUC of cinnamic acid derivatives after ingestion of BGP alone or BGP plus herbal extract mixture
Assay type: in vivo
Details: humans, BGP and herbal extracts co-administered; for AUC: plasma 0–24 h, after enzymatic deconjugation, mean ± SD, n = 6; for fold increase of AUC versus BGP administered alone: 0–24 h
Description: Six volunteers (three males and three females) completely understood the study protocol and consented to participate in the research. The following exclusion criteria were used for shortlisting participants: past or present medical history (asthma, significant allergies, heart, liver, kidney, and urinary tract disease); prescribed medication; pregnancy; smoking (>20 cigarettes/day); alcohol consumption (>500 mL/day of beer); use of dietary supplements and healthy foods; and participation in other clinical trials. The participants were instructed to refrain from consuming propolis and propolis‐containing foods and beverages during the study period and 1 week prior to the start of the study. After a 12‐h fast, the participants were given a test food comprising the encapsulated BGP powder or a mixture of the BGP powder and herbal extracts in two experimental periods separated by 1 week. […] The collected samples were centrifuged at 1500 g for 3 min at 23 ± 2°C to separate the plasma, which was subsequently preserved at −80°C until further sample preparation.
Briefly, 50 μL of plasma was treated with a sulfatase/β‐glucuronidase solution (sulfatase 15 units/sample) in 100 mM sodium acetate and 5 mM ascorbate at 37°C for 1 h. Following the incubation, 850 μL of methanol was added to the samples to stop the deconjugation reaction, after which centrifugation was performed at 2000 g for 10 min at 23 ± 2°C. The supernatant was evaporated under nitrogen gas and then reconstituted in a fixed volume of methanol. The samples were filtered through a 0.22 μm PTFE membrane and then analyzed by LC–MS/MS.
Briefly, 5 μL of the sample was injected into a reversed‐phase column (Acquity UPLC BEH C18, 2.1 × 100 mm, ID. 1.7 μm; Waters, Milford, MA, USA) held at 30°C. The elution was performed using solvent A (0.1% formic acid) and solvent B (acetonitrile) at a flow rate of 0.3 mL/min. The gradient profiles were as follows: 5% B (0–2 min), 5–95% B (2–22 min), 95% B (22–25 min), and 5% B (25–30 min). Tandem mass spectrometry (MS/MS) was conducted using an ion trap mass spectrometer with a heated electrospray ion source (HESI) in both positive and negative ionization modes (scan range m/z 70–1000). […] External standard curves for cinnamic acid derivatives were generated using eight concentrations of authentic standard solutions (1, 5, 10, 50, 100, 250, 500, and 1000 ng/mL).
Quantification of cinnamic acid derivatives in the plasma was performed using the Trace Finder software version 4.1 (Thermo Scientific). The plasma concentration versus time data for the analytes obtained from each human and rat were entered into a Microsoft Excel spreadsheet. The area under the plasma concentration–time curve (AUC) was calculated using the linear trapezoidal rule, extending to the last sampling point.

Row | AUC (both sexes, human, oral, read-out: AUC) [ng·h/mL] | SMILES | fold increase of AUC versus BGP administered alone [fold] | AUC [ng·h/mL]
1 | 446 ± 144 | CC(C)=CCc1cc(/C=C/C(=O)O)ccc1O [drupanin] | 1.5 | –
2 | – | CC(C)=CCc1cc(/C=C/C(=O)O)cc(CC=C(C)C)c1O [artepillin C] | 1.7 | 312.9 ± 91.4

Source: publication PMC11266932, “Enhanced absorption of prenylated cinnamic acid derivatives from Brazilian green propolis by turmeric in humans and rats” (Food Science & Nutrition, 2024)
